Test results taken from patent publication US11103698B2, “Using alternating electric fields to increase cell membrane permeability” (The Board of Trustees of the Leland Stanford Junior …, priority 2018, dated 2021).

How the values were obtained:
[1] = test system: KR158B murine astrocytoma cell line; assay: Bioluminescence imaging of Renilla luciferase-expressing astrocytoma cells under TTFields (coelenterazine substrate); format: cell-based; conditions: TTFields exposure vs no TTFields
From the text: Renilla luciferase activity is not dependent upon ATP and magnesium (as opposed to firefly luciferase). Thus, it is believed that the induction of bioluminescence by TTFields was not due to alterations in endogenous pools of ATP.

[2] = test system: U87-MG/GFP-Luc cells; assay: Sensitivity to drug and synergy with TTFields; format: cell-based, human
[3] = test system: GBM39 cells (GBM39/Luc); assay: Sensitivity to drug and synergy with TTFields; format: cell-based, human; conditions: for synergy of combination with TTFields: GBM39/Luc; for sensitivity of cells to various concentrations of drug: TTFields for 3 days vs no TTFields
[4] = test system: human glioblastoma cells; assay: Growth inhibition by TTFields in conjunction with compound; format: cell-based
From the text: In this figure, 5-ALA=5-aminolevulinic acid; Ethidium D=ethidium bromide; and FITC=fluorescein isothiocyanate.

[5] = test system: U87-MG/eGFP-fLuc cells; assay: Annexin-V-APC binding (apoptosis positive control), fluorescence microscopy; format: cell-based, human; conditions: 21 μM, positive control for apoptosis, TTFields-unexposed
Experimental: To test if the imposition of TTFields affects cell membrane properties, and thus membrane permeability, the effect of TTFields on the behavior of fluorescently tagged reagents that bind to the cellular membrane was determined. Initially, the impact of TTFields on the binding of Annexin-V-APC to the membrane of U87-MG/eGFP-fLuc cells was measured. Annexin-V-APC binding is a signature of early apoptosis which is characterized by ruffling of the membrane.

[6] = test system: pcGBM2/GFP-Luc cells
[7] = test system: U87-MG/eGFP-fLuc cells
Experimental: U87-MG/eGFP-fLuc cells were seeded on Thermanox glass coverslips, allowed to settle and grow, and then subjected to either TTFields or no TTFields.
To assess the reversibility of the effect of TTFields on cancer cells, U87-MG/eGFP-fLuc cells were subjected to three conditions: (1) No TTFields exposure, standard cell culture conditions (37° C., 95% 02, 5% CO2), (2) TTFields exposure for 24 h and (3) TTFields exposure for 24 h followed by no TTFields exposure for 24 h. The readouts of BLI, PpIX fluorescence (5-ALA product) and Dextran-FITC (4 kDa) fluorescence were acquired. All experimental conditions were done in triplicate.
Briefly, cells in culture were trypsinized via standard protocols and 10,000-50,000 single cells were suspended in 200 or 75 μL of DMEM/10% FBS/1×antibiotic-antimycotic and then were seeded onto the center of a 22 mm or 12 mm diameter glass Thermanox™ coverslips respectively (ThermoFisher Scientific, Waltham, Mass., USA). The cells were incubated overnight in a humidified 95% air/5% CO2 incubator set at 37° C. Once the cells became attached to the coverslip, 2 mL or 1 mL of DMEM/10% FBS/lx antibiotic-antimycotic was added per well of 6-well or 12-well plates, respectively. […]

[8] = test system: MDA-MB-435 cells, wild type; assay: Intracellular accumulation of doxorubicin under alternating electric fields; format: cell-based, human; conditions: 150 kHz, 1.62 V/cm, 23 h, then doxorubicin 10 μM for 1 h with field; vs no field
[9] = test system: MDA-MB-435 cells, doxorubicin resistant; assay: as above; format: cell-based, human; conditions: 150 kHz, 1.62 V/cm, 23 h, then doxorubicin 10 μM for 1 h with field; vs no field
[10] = test system: MES-SA cells; assay: Intracellular accumulation of doxorubicin under 150 kHz alternating electric fields; format: cell-based; conditions: 1.62 V/cm RMS, 24 h, doxorubicin 10 μM for last hour, vs untreated with field
[11] = test system: MDA-MB-235 cells; assay: Sensitivity to drug and synergy with TTFields; format: cell-based
[12] = target: T1, purified firefly luciferase (Photinus pyralis, UniProt P08659); assay: Activity of purified firefly luciferase exposed to TTFields; format: biochemical; conditions: 200 kHz TTFields, 60 minutes after initiation
T1 construct: purchased Sigma Aldrich Inc (St. Louis, Mo.) SRE0045-2 MG
T1 sequence (P08659 whole entry): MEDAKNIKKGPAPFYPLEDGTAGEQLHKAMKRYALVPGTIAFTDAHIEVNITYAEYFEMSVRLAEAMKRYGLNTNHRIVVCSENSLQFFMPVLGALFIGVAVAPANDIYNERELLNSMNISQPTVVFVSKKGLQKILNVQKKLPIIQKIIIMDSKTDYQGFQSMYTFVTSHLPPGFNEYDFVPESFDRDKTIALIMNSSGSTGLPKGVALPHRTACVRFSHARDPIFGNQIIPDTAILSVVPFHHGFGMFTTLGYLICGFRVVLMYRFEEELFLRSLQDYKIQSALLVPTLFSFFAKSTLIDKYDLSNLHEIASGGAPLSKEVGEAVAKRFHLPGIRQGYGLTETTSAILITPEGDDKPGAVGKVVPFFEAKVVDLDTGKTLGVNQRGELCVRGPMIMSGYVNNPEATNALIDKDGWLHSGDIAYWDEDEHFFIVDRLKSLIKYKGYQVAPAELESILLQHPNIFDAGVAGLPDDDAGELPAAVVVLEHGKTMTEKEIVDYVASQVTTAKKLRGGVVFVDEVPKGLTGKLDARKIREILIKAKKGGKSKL

[13] = test system: MCF-7 human breast adenocarcinoma cells, wild type; assay: Intracellular accumulation of mitoxantrone under alternating electric fields; format: cell-based; conditions: 150 kHz, 1.62 V/cm, 23 h, then mitoxantrone 2 μM for 1 h with field; vs no field
Experimental: (§1) The intracellular accumulation of mitoxantrone was then measured.

[14] = test system: MCF-7 cells, mitoxantrone resistant; assay: as above; format: cell-based, human; conditions: 150 kHz, 1.62 V/cm, 23 h, then mitoxantrone 2 μM for 1 h with field; vs no field
Experimental: as §1

[15] = test system: U87-MG cells; assay: 7-AAD accumulation by flow cytometry under alternating electric fields; format: cell-based, human; conditions: 300 kHz, 1.62 V/cm RMS, 24 h; 7-AAD introduced 15 minutes prior to cessation of the field (other timings after cessation: no significant increase)
Experimental: FIG. 7D depicts the results of an experiment to test how quickly the permeability drops back down after cessation of the alternating electric fields. More specifically, 7-Aminoactinomycin D (7-AAD) is a fluorescent chemical compound with a strong affinity for DNA. […] 7-AAD was introduced into samples at five different times: 15 minutes prior to the cessation of the alternating electric field; immediately after cessation of the alternating electric field; and 15, 30, and 60 minutes after cessation of the alternating electric field. In each case, the cells were incubated with 7-AAD for 30 minutes after introduction of the 7-AAD, followed by flow cytometry analysis of the percentage of cells with increased accumulation of the fluorescent 7-AAD for each of the different timings.
After this 15 minute period, alternating electric field application was terminated and the cells were incubated at room temperature for an additional 15 minutes, followed by flow cytometry analysis of the percentage of cells with increased accumulation of the fluorescent 7-AAD for each of the different frequencies.

[16] = test system: MDA-MB-435 human melanoma cell line cells; assay: as above; format: cell-based; conditions: 150 kHz, 1.62 V/cm, 24 h
Experimental: After this 15 minute period, alternating electric field application was terminated and the cells were incubated at room temperature for an additional 15 minutes.
After this 24 hour period, the alternating electric fields were turned off for 15 minutes, after which the 7-AAD was added. After waiting an additional 15 minutes, the percentage of cells with increased accumulation of the fluorescent 7-AAD was determined using flow cytometry.

[17] = test system: U87-MG cells; assay: 5-ALA uptake (PpIX fluorescence) under TTFields, single culture; format: cell-based, human
Experimental: Experiments were performed to determine the effects of TTFields on uptake of 5-ALA (as measured by PpIX accumulation and its resultant fluorescence) in glioblastoma cells. Because it is difficult to distinguish the margin between tumor and normal cells using the present 5-ALA bioassay, the measurement of PpIX fluorescence was used to address this issue. Investigations were run to determine whether permeation of 5-ALA through the cellular membrane and into the glioblastoma cells could be increased with TTFields exposure. U87-MG cells were exposed or unexposed to TTFields, each for durations of 6-24 h.
All monovariant statistical comparisons between no TTFields vs. TTFields samples done by Student's t-test for n=3 experiments per time point.

[18] = test system: U87-MG GBM on PCS-201 fibroblast co-cultures; assay: 5-ALA uptake (PpIX fluorescence) in glioblastoma-fibroblast co-culture under TTFields; format: cell-based, human
[19] = TTFields for 3 days vs no TTFields

Oc1ccc(Cc2nc3c(Cc4ccccc4)nc(-c4ccc(O)cc4)cn3c2O)cc1 [coelenterazine]
permeation of the luciferase substrate through the plasma membrane (bioluminescence) [1]: increased permeation

CC1=C(CO)C(=O)O[C@@H]([C@@H](C)[C@H]2CC[C@H]3[C@@H]4C[C@H]5O[C@]56[C@@H](O)C=CC(=O)[C@]6(C)[C@H]4CC[C@]23C)C1 [Withaferin A]
synergy of combination with TTFields [2]: synergy was found | synergy of combination with TTFields [3]: synergy was found | growth inhibition in conjunction with TTFields [4]: synergistically inhibited | Annexin-V-APC binding to cells (early apoptosis) [5]: could be visualized | synergy of combination with TTFields [6]: synergy was found

O=NN(CCCl)C(=O)NC1CCCCC1 [Lomustine]
sensitivity of cells to various concentrations of drug [2, 19]: improves the sensitivity | sensitivity of cells to various concentrations of drug ([3]; GBM39 cells): improves the sensitivity | sensitivity of cells to various concentrations of drug [6, 19]: improves the sensitivity

O=C(O)[C@H]1CSC(c2nc3ccc(O)cc3s2)=N1 [D-luciferin]
permeation of the luciferase substrate through the plasma membrane (bioluminescence) ([7]; TTFields exposure vs no TTFields): increased permeation | uptake (BLI flux), reversibility ([7]; no TTFields vs TTFields 24 h vs TTFields 24 h followed by no TTFields 24 h, FIG. 7A): reversibly increase uptake

COc1cccc2c1C(=O)c1c(O)c3c(c(O)c1C2=O)C[C@@](O)(C(=O)CO)C[C@@H]3O[C@H]1C[C@H](N)[C@H](O)[C@H](C)O1 [doxorubicin]
intracellular accumulation of doxorubicin [8]: increased | intracellular accumulation of doxorubicin [9]: increased | increase in intracellular accumulation of doxorubicin [10]: more than 2 × | synergy of combination with TTFields [11]: Evidence of synergy | sensitivity of cells to various concentrations of drug [11, 19]: improves the sensitivity

firefly luciferase: purified firefly luciferase enzyme (Sigma Aldrich SRE0045-2 MG)
loss in enzymatic activity [12]: > 1000 fold

CCc1c2c(nc3ccc(OC(=O)N4CCC(N5CCCCC5)CC4)cc13)-c1cc3c(c(=O)n1C2)COC(=O)[C@]3(O)CC [Irinotecan]
synergy of combination with TTFields [3]: synergy was found | sensitivity of cells to various concentrations of drug ([3]; GBM39/Luc cells): improves the sensitivity

O=C1c2c(O)ccc(O)c2C(=O)c2c(NCCNCCO)ccc(NCCNCCO)c21 [mitoxantrone]
intracellular accumulation of mitoxantrone [13]: increased | intracellular accumulation of mitoxantrone [14]: increased

Cc1c2oc3c(C)c(N)cc(C(=O)N[C@@H]4C(=O)N[C@H](C(C)C)C(=O)N5CCC[C@H]5C(=O)N(C)CC(=O)N(C)[C@@H](C(C)C)C(=O)O[C@@H]4C)c3nc-2c(C(=O)N[C@@H]2C(=O)N[C@H](C(C)C)C(=O)N3CCC[C@H]3C(=O)N(C)CC(=O)N(C)[C@@H](C(C)C)C(=O)O[C@@H]2C)c(N)c1=O [7-AAD, 7-Aminoactinomycin D]
accumulation of 7-AAD (percentage of cells with increased accumulation) [15]: significant increase | percentage of cells with increased accumulation of 7-AAD ([16]; 7-AAD added for last 15 min while field continued): ~66% | percentage of cells with increased accumulation of 7-AAD ([16]; fields turned off for 15 minutes before 7-AAD was added): ~20%

NCC(=O)CCC(=O)O [5-ALA, 5-aminolevulinic acid]
uptake of 5-ALA (PpIX fluorescence) ([17]; 6 h TTFields vs no TTFields, p=0.047): significantly increased uptake | uptake of 5-ALA (PpIX fluorescence) ([17]; 24 h TTFields vs no TTFields, p=0.011): increase was maintained | uptake (PpIX fluorescence), reversibility ([17]; no TTFields vs TTFields 24 h vs TTFields 24 h followed by no TTFields 24 h, FIG. 7B): reversibly increase uptake | ratio of PpIX fluorescence intensity in U87-MG cells over surrounding PCS-201 fibroblast cells ([18]; 24 h TTFields vs no TTFields, p=0.043): significantly increased | rate of PpIX fluorescence intensity increase ([18]; TTFields-exposed vs unexposed co-cultures, 2, 6, 24 h, p<0.001): significantly augmented
